Tests used:
serotonin receptor 4 = conditions: cited from earlier work
[1] = design: method as in PMID 9127274; conditions: rat; cited from earlier work
[2] = test system: L-Arginine:glycine amidinotransferase (AGAT); assay: Equilibrium constants of the AGAT-catalyzed reactions calculated from free amino acid concentrations in rat organs; format: in vivo, Sprague-Dawley rats
[3] = design: method as in PMID 28710553; conditions: single i.p. hArg 20, 220, 440 mg/kg; cited from earlier work
[4] = design: method as in PMID 31776762; conditions: decarboxylation product of hArg; rat TTC model; cited from earlier work
[5] = oral hArg 125 mg/day, cited from earlier work
[6] = design: method as in PMID 24004504; conditions: cited from earlier work
arginase = test system: arginase; design: method as in PMID 31028716; conditions: cited from earlier work
polyamine catabolism = assay: Putrescine:spermidine (PUT/SPD) molar ratio in organ homogenates; conditions: R17; hArg 440 mg/kg i.p.; 14 min; without isoprenaline
[7] = Free amino acids by GC-MS in organ homogenates of rats given i.p. hArg (isoprenaline-induced takotsubo model)
[8] = R1, hArg 440 mg/kg i.p., sacrifice 32 min, ISO 50 mg/kg i.p. at 15 min
[9] = R2, hArg 20 mg/kg i.p., sacrifice 64 min, ISO 50 mg/kg i.p. at 15 min
[10] = R3, hArg 20 mg/kg i.p., sacrifice 28 min, ISO 50 mg/kg i.p. at 15 min
[11] = R4, hArg 440 mg/kg i.p., sacrifice 87 min, ISO 50 mg/kg i.p. at 15 min
[12] = R13, hArg 20 mg/kg i.p., sacrifice 126 min, ISO 50 mg/kg i.p. at 15 min
[13] = R14, hArg 220 mg/kg i.p., sacrifice 108 min, ISO 50 mg/kg i.p. at 15 min
[14] = R17, hArg 440 mg/kg i.p., sacrifice 14 min, no ISO
[15] = R18, hArg 20 mg/kg i.p., sacrifice 114 min, ISO 50 mg/kg i.p. at 15 min
[16] = R19, hArg 220 mg/kg i.p., sacrifice 98 min, ISO 50 mg/kg i.p. at 15 min
[17] = hArg treatment, mice, dose-dependent

Structure (SMILES): NCCCC[C@H](N)C(=O)O [Lys, L-lysine]
- action at serotonin receptor 4 (serotonin receptor 4): partial serotonin receptor 4 antagonist

Structure (SMILES): CC(C)NCC(O)c1ccc(O)c(O)c1 (stereo not drawn) [isoprenaline]
- elimination half-life [1]: 10 min

Structure (SMILES): N=C(N)NCCCC[C@H](N)C(=O)O [hArg, L-homoarginine]
- KhArg/KGAA ratio, kidney [2, 8]: 0.13
- KhArg/KGAA ratio, lung [2, 8]: 6.8
- equilibrium constant KGAA, kidney [2, 8]: 1.83
- equilibrium constant KGAA, lung [2, 8]: 0.06
- equilibrium constant KhArg, kidney [2, 8]: 0.24
- equilibrium constant KhArg, lung [2, 8]: 0.40
- KhArg/KGAA ratio, heart [2, 9]: 0.002
- KhArg/KGAA ratio, kidney [2, 9]: 0.23
- KhArg/KGAA ratio, liver [2, 9]: 0.19
- KhArg/KGAA ratio, lung [2, 9]: 0.13
- equilibrium constant KGAA, heart [2, 9]: 2.26
- equilibrium constant KGAA, kidney [2, 9]: 0.31
- equilibrium constant KGAA, liver [2, 9]: 0.09
- equilibrium constant KGAA, lung [2, 9]: 0.023
- equilibrium constant KhArg, heart [2, 9]: 0.005
- equilibrium constant KhArg, kidney [2, 9]: 0.07
- equilibrium constant KhArg, liver [2, 9]: 0.02
- equilibrium constant KhArg, lung [2, 9]: 0.003
- KhArg/KGAA ratio, heart [2, 10]: 0.001
- KhArg/KGAA ratio, kidney [2, 10]: 0.16
- KhArg/KGAA ratio, liver [2, 10]: 0.35
- KhArg/KGAA ratio, lung [2, 10]: 0.06
- equilibrium constant KGAA, heart [2, 10]: 1.39
- equilibrium constant KGAA, kidney [2, 10]: 0.37
- equilibrium constant KGAA, liver [2, 10]: 2.11
- equilibrium constant KGAA, lung [2, 10]: 5.34
- equilibrium constant KhArg, heart [2, 10]: 0.002
- equilibrium constant KhArg, kidney [2, 10]: 0.06
- equilibrium constant KhArg, liver [2, 10]: 0.74
- equilibrium constant KhArg, lung [2, 10]: 0.31
- KhArg/KGAA ratio, kidney [2, 11]: 2.18
- KhArg/KGAA ratio, liver [2, 11]: 1.61
- KhArg/KGAA ratio, lung [2, 11]: 2.61
- equilibrium constant KGAA, kidney [2, 11]: 0.53
- equilibrium constant KGAA, liver [2, 11]: 12.6
- equilibrium constant KGAA, lung [2, 11]: 0.13
- equilibrium constant KhArg, kidney [2, 11]: 1.16
- equilibrium constant KhArg, liver [2, 11]: 20.3
- equilibrium constant KhArg, lung [2, 11]: 0.34
- KhArg/KGAA ratio, heart [2, 12]: 0.43
- KhArg/KGAA ratio, kidney [2, 12]: 0.006
- KhArg/KGAA ratio, liver [2, 12]: 0.31
- KhArg/KGAA ratio, lung [2, 12]: 0.27
- equilibrium constant KGAA, heart [2, 12]: 0.23
- equilibrium constant KGAA, kidney [2, 12]: 1.14
- equilibrium constant KGAA, liver [2, 12]: 2.45
- equilibrium constant KGAA, lung [2, 12]: 0.07
- equilibrium constant KhArg, heart [2, 12]: 0.10
- equilibrium constant KhArg, kidney [2, 12]: 0.007
- equilibrium constant KhArg, liver [2, 12]: 0.76
- equilibrium constant KhArg, lung [2, 12]: 0.02
- KhArg/KGAA ratio, heart [2, 13]: 1.9
- KhArg/KGAA ratio, kidney [2, 13]: 0.05
- KhArg/KGAA ratio, liver [2, 13]: 4.8
- KhArg/KGAA ratio, lung [2, 13]: 1.13
- equilibrium constant KGAA, heart [2, 13]: 0.20
- equilibrium constant KGAA, kidney [2, 13]: 1.32
- equilibrium constant KGAA, liver [2, 13]: 1.07
- equilibrium constant KGAA, lung [2, 13]: 0.03
- equilibrium constant KhArg, heart [2, 13]: 0.38
- equilibrium constant KhArg, kidney [2, 13]: 0.06
- equilibrium constant KhArg, liver [2, 13]: 5.16
- equilibrium constant KhArg, lung [2, 13]: 0.03
- KhArg/KGAA ratio, heart [2, 14]: 3.8
- KhArg/KGAA ratio, kidney [2, 14]: 0.07
- KhArg/KGAA ratio, liver [2, 14]: 6.7
- KhArg/KGAA ratio, lung [2, 14]: 4.0
- equilibrium constant KGAA, heart [2, 14]: 0.09
- equilibrium constant KGAA, kidney [2, 14]: 1.64
- equilibrium constant KGAA, liver [2, 14]: 0.80
- equilibrium constant KGAA, lung [2, 14]: 0.04
- equilibrium constant KhArg, heart [2, 14]: 0.33
- equilibrium constant KhArg, kidney [2, 14]: 0.12
- equilibrium constant KhArg, liver [2, 14]: 5.38
- equilibrium constant KhArg, lung [2, 14]: 0.17
- KhArg/KGAA ratio, heart [2, 15]: 0.36
- KhArg/KGAA ratio, kidney [2, 15]: 0.005
- KhArg/KGAA ratio, liver [2, 15]: 0.12
- KhArg/KGAA ratio, lung [2, 15]: 0.12
- equilibrium constant KGAA, heart [2, 15]: 0.31
- equilibrium constant KGAA, kidney [2, 15]: 1.94
- equilibrium constant KGAA, liver [2, 15]: 4.20
- equilibrium constant KGAA, lung [2, 15]: 0.21
- equilibrium constant KhArg, heart [2, 15]: 0.11
- equilibrium constant KhArg, kidney [2, 15]: 0.009
- equilibrium constant KhArg, liver [2, 15]: 0.50
- equilibrium constant KhArg, lung [2, 15]: 0.03
- KhArg/KGAA ratio, kidney [2, 16]: 1.8
- KhArg/KGAA ratio, liver [2, 16]: 2.0
- equilibrium constant KGAA, kidney [2, 16]: 0.35
- equilibrium constant KGAA, liver [2, 16]: 2.59
- equilibrium constant KhArg, kidney [2, 16]: 0.62
- equilibrium constant KhArg, liver [2, 16]: 5.26
- equilibrium constant KhArg, lung [2, 16]: 0.20
- effect on citrullination (proteinic Cit) in organs (all organs, data not shown): independent of the hArg dose
- incorporation of pharmacological hArg into tissue proteins (rat, in vivo): no incorporation of pharmacological hArg into tissue proteins
- changes in nitrite and nitrate [3]: marginal
- tissue homoagmatine (hAgm) concentration, median [interquartile range] [4]: 34.8 [4.6–270] nM
- effects on cognition ([5]; healthy humans): did not reveal any appreciable effects on cognition
- increase of plasma Lys concentration compared to placebo ([5]; healthy young volunteers): about 8%
- pulse wave velocity, augmentation index, flow-mediated vasodilatation, corticospinal and cortical excitability ([5]; healthy young volunteers): without changes
- infarct size [6, 17]: decreased infarct sizes
- neurological scores [6, 17]: improved neurological scores
- hArg plasma concentration ([6]; oral hArg, C57BL6 mice, versus vehicle-treated): 0.20 ± 0.02 µM
- substrate quality for arginase (arginase): poor substrate
- PUT/SPD molar ratio, heart (polyamine catabolism): 1.5
- PUT/SPD molar ratio, kidney (polyamine catabolism): 0.86
- PUT/SPD molar ratio, liver (polyamine catabolism): 0.12
- PUT/SPD molar ratio, lung (polyamine catabolism): 0.83
- free Arg concentration, kidney homogenate [7, 8]: 365 µM
- free Arg concentration, lung homogenate [7, 8]: 102 µM
- free Lys concentration, kidney homogenate [7, 8]: 646 µM
- free Lys concentration, lung homogenate [7, 8]: 229 µM
- free Arg concentration, heart homogenate [7, 9]: 384 µM
- free Arg concentration, kidney homogenate [7, 9]: 37.4 µM
- free Arg concentration, liver homogenate [7, 9]: 124 µM
- free Arg concentration, lung homogenate [7, 9]: 210 µM
- free Lys concentration, heart homogenate [7, 9]: 644 µM
- free Lys concentration, kidney homogenate [7, 9]: 96 µM
- free Lys concentration, liver homogenate [7, 9]: 241 µM
- free Lys concentration, lung homogenate [7, 9]: 306 µM
- free Arg concentration, heart homogenate [7, 10]: 575 µM
- free Arg concentration, kidney homogenate [7, 10]: 60.7 µM
- free Arg concentration, liver homogenate [7, 10]: 14.3 µM
- free Arg concentration, lung homogenate [7, 10]: 7.34 µM
- free Lys concentration, heart homogenate [7, 10]: 834 µM
- free Lys concentration, kidney homogenate [7, 10]: 173 µM
- free Lys concentration, liver homogenate [7, 10]: 392 µM
- free Lys concentration, lung homogenate [7, 10]: 191 µM
- free Arg concentration, kidney homogenate [7, 11]: 73.8 µM
- free Arg concentration, liver homogenate [7, 11]: 10.3 µM
- free Arg concentration, lung homogenate [7, 11]: 185 µM
- free Lys concentration, kidney homogenate [7, 11]: 187 µM
- free Lys concentration, liver homogenate [7, 11]: 714 µM
- free Lys concentration, lung homogenate [7, 11]: 441 µM
- free Arg concentration, heart homogenate [7, 12]: 75.4 µM
- free Arg concentration, kidney homogenate [7, 12]: 370 µM
- free Arg concentration, liver homogenate [7, 12]: 21.2 µM
- free Arg concentration, lung homogenate [7, 12]: 261 µM
- free Lys concentration, heart homogenate [7, 12]: 151 µM
- free Lys concentration, kidney homogenate [7, 12]: 602 µM
- free Lys concentration, liver homogenate [7, 12]: 492 µM
- free Lys concentration, lung homogenate [7, 12]: 471 µM
- free Arg concentration, heart homogenate [7, 13]: 91.2 µM
- free Arg concentration, kidney homogenate [7, 13]: 733 µM
- free Arg concentration, liver homogenate [7, 13]: 15.9 µM
- free Arg concentration, lung homogenate [7, 13]: 171 µM
- free Lys concentration, heart homogenate [7, 13]: 154 µM
- free Lys concentration, kidney homogenate [7, 13]: 1101 µM
- free Lys concentration, liver homogenate [7, 13]: 391 µM
- free Lys concentration, lung homogenate [7, 13]: 245 µM
- free Arg concentration, heart homogenate [7, 14]: 92 µM
- free Arg concentration, kidney homogenate [7, 14]: 767 µM
- free Arg concentration, liver homogenate [7, 14]: 29.8 µM
- free Arg concentration, lung homogenate [7, 14]: 230 µM
- free Lys concentration, heart homogenate [7, 14]: 140 µM
- free Lys concentration, kidney homogenate [7, 14]: 1138 µM
- free Lys concentration, liver homogenate [7, 14]: 497 µM
- free Lys concentration, lung homogenate [7, 14]: 386 µM
- free Arg concentration, heart homogenate [7, 15]: 51.3 µM
- free Arg concentration, kidney homogenate [7, 15]: 262 µM
- free Arg concentration, liver homogenate [7, 15]: 10.1 µM
- free Arg concentration, lung homogenate [7, 15]: 136 µM
- free Lys concentration, heart homogenate [7, 15]: 153 µM
- free Lys concentration, kidney homogenate [7, 15]: 503 µM
- free Lys concentration, liver homogenate [7, 15]: 328 µM
- free Lys concentration, lung homogenate [7, 15]: 391 µM
- free Arg concentration, kidney homogenate [7, 16]: 56.3 µM
- free Arg concentration, liver homogenate [7, 16]: 15 µM
- free Arg concentration, lung homogenate [7, 16]: 233 µM
- free Lys concentration, kidney homogenate [7, 16]: 145 µM
- free Lys concentration, liver homogenate [7, 16]: 451 µM
- free Lys concentration, lung homogenate [7, 16]: 169 µM
- increase in free GAA in the kidney ([7]; after i.p. hArg, Figure 5): ~100 fold
- effect on global arginine bioavailability ratio (GABR) ([7]; all organs, data not shown): independent of the hArg dose
